# From PubChem BioAssay (NCI)
#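 The compound was tested at five concentrations on cells cultured in 96-well plates, with a 48-hour exposure period. The concentration for 50% growth inhibition is given as GI50. TGI denotes the concentration required for complete inhibition of growth.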
# What was measured:
# Test in all cases: NCI tumour cell line growth inhibition, 48 h
# [1] = tested on: PC-3 prostate
# [2] = tested on: OVCAR-4 ovarian
# [3] = tested on: LOX IMVI melanoma
# [4] = tested on: A498 renal
# [5] = tested on: HOP-62 NSCLC
# [6] = tested on: ACHN renal
# [7] = tested on: HCT-116 colon
# [8] = tested on: OVCAR-5 ovarian
# [9] = tested on: HL-60(TB) leukemia
# [10] = tested on: DU-145 prostate
SMILES,TGI [1],TGI [2],TGI [3],TGI [4],TGI [5],TGI [6],TGI [7],TGI [8],TGI [9],TGI [10],GI50 [1],GI50 [10],GI50 [3],GI50 [4],GI50 [5],GI50 [8],GI50 [9]
CC(C)=CCC/C(C)=C/COc1c2ccoc2cc2oc(=O)ccc12,> 100 µM,> 100 µM,46.4 µM,68.2 µM,> 100 µM,83.8 µM,85.4 µM,75.8 µM,50.5 µM,–,–,–,–,–,–,–,–
CC1CC/C(=C\c2ccc(F)cc2)C(=O)/C1=C/c1ccc(F)cc1 (configuration not stated),28.3 µM,–,7 µM,25.3 µM,–,13.6 µM,5.4 µM,25.4 µM,–,17.1 µM,–,–,–,–,–,–,–
C=C(NC(=O)C(=C)NC(=O)c1csc(C2=NC3c4csc(n4)C4NC(=O)c5csc(n5)C(C(C)(O)C(C)O)NC(=O)C5CSC(=N5)/C(=C/C)NC(=O)C(C(C)O)NC(=O)c5csc(n5)C3(CC2)NC(=O)C(C)NC(=O)C(=C)NC(=O)C(C)NC(=O)C(C(C)CC)NC2C=Cc3c(C(C)O)cc(nc3C2O)C(=O)OC4C)n1)C(N)=O (configuration not stated),–,> 100 µM,2.45 µM,3.59 µM,99.4 µM,11.7 µM,1.77 µM,> 51.4 µM,> 100 µM,–,–,–,–,–,–,–,–
O=C(O)c1ccc(C2=Cc3cc(Cl)ccc3OC2)cc1,–,–,> 100 µM,> 100 µM,> 100 µM,> 100 µM,> 100 µM,> 100 µM,> 100 µM,–,–,–,–,–,–,–,–
Cn1cc(-c2ccc3cc(-c4ccc(CC(=O)Nc5cc(C(C)(C)C)on5)cc4)cnc3c2)cn1,20.8 µM,–,10.9 µM,2.26 µM,> 100 µM,–,–,18.9 µM,7.45 µM,10.2 µM,2.4 µM,1.05 µM,0.945 µM,0.269 µM,2.54 µM,4.4 µM,2.66 µM
C=C1C(=O)O[C@@H]2[C@H](O)[C@@H](C)[C@@H]3C=CC(=O)[C@@]3(C)[C@@H](OC(=O)/C(C)=C/C)[C@H]12,–,3.05 µM,2.88 µM,6.88 µM,15.3 µM,–,1.03 µM,8.31 µM,9.82 µM,–,–,–,–,–,–,–,–
Nc1ncn2c(n1)nc1ccccc12,> 100 µM,> 100 µM,–,> 100 µM,–,> 100 µM,> 100 µM,> 100 µM,> 100 µM,> 100 µM,–,–,–,–,–,–,–
Cc1cc(S(=O)(=O)Nc2nc3ccccc3nc2-c2ccc(Cl)cc2)c(S)cc1Cl,34.3 µM,28.2 µM,–,30.7 µM,46.7 µM,34.9 µM,40.5 µM,33.8 µM,44.1 µM,29.9 µM,–,–,–,–,–,–,–
CCOC(=O)C(Cc1c[nH]c2cc([N+](=O)[O-])ccc12)NS(=O)(=O)c1ccc2ccccc2c1 (configuration not stated),–,28 µM,31.6 µM,80 µM,31.4 µM,57.9 µM,30.9 µM,–,48.5 µM,–,–,–,–,–,–,–,–
NC(CSSCC(N)=NCC12CC3CC(CC(C3)C1)C2)=NCC12CC3CC(CC(C3)C1)C2,29.9 µM,45.3 µM,–,51 µM,> 100 µM,26.6 µM,80.9 µM,34.2 µM,26.3 µM,32.5 µM,–,–,–,–,–,–,–
CC1(C)CCC(C)(C)C1C(=O)NC(O)C(=O)O (configuration not stated),> 100 µM,–,> 100 µM,> 100 µM,> 100 µM,> 100 µM,> 100 µM,> 100 µM,> 100 µM,> 100 µM,–,–,–,–,–,–,–
O=c1[nH]cc(Cl)c(=O)[nH]1,> 100 µM,> 100 µM,> 100 µM,> 100 µM,–,> 100 µM,> 100 µM,> 100 µM,> 100 µM,> 100 µM,–,–,–,–,–,–,–
O=C1CC(c2ccccc2)=Nc2ccccc2N1,–,> 100 µM,97.6 µM,> 100 µM,> 100 µM,> 100 µM,> 100 µM,> 100 µM,> 100 µM,–,–,–,–,–,–,–,–
O=C(CSc1nc(-c2ccccc2)c(-c2ccccc2)[nH]1)N/N=C/c1ccc(O)cc1,–,–,43 µM,–,46.5 µM,55.9 µM,63.2 µM,–,62.3 µM,–,–,–,–,–,–,–,–
NC1=NS(=O)(=O)Nc2nc(-c3ccccc3)[nH]c21,–,> 100 µM,> 100 µM,–,–,> 100 µM,> 100 µM,> 100 µM,> 100 µM,–,–,–,–,–,–,–,–
Cc1csc2c1-n1cccc1C2=O,> 100 µM,> 100 µM,> 100 µM,> 100 µM,> 100 µM,> 100 µM,> 100 µM,> 100 µM,–,> 100 µM,–,–,–,–,–,–,–
COC1=CC2(CC(OC)=C1OC)OC21COc2ccccc2C1=O (configuration not stated),> 100 µM,> 100 µM,> 100 µM,> 100 µM,> 100 µM,> 100 µM,> 100 µM,> 100 µM,> 100 µM,–,–,–,–,–,–,–,–
O=[N+]([O-])C(/C=N/Nc1ccccc1)/C=N/Nc1ccccc1,–,> 100 µM,> 100 µM,> 100 µM,> 100 µM,> 100 µM,> 100 µM,> 100 µM,> 100 µM,–,–,–,–,–,–,–,–
C=C(C)COC1CCCCO1 (configuration not stated),> 100 µM,–,> 100 µM,> 100 µM,> 100 µM,> 100 µM,> 100 µM,> 100 µM,> 100 µM,> 100 µM,–,–,–,–,–,–,–
O=C(NC(=O)c1cc(-c2ccccc2)n[nH]1)c1ccccc1,> 100 µM,> 100 µM,> 100 µM,> 100 µM,> 100 µM,> 100 µM,> 100 µM,> 100 µM,–,> 100 µM,–,–,–,–,–,–,–
c1csc(-c2ccsc2-c2cccs2)c1,–,> 100 µM,> 100 µM,> 100 µM,> 100 µM,> 100 µM,> 100 µM,> 100 µM,86.7 µM,> 100 µM,–,–,–,–,–,–,–
O=C(Nc1cccc([N+](=O)[O-])c1)c1n[nH]n(-c2cccc([N+](=O)[O-])c2)c1=O,> 100 µM,–,> 100 µM,> 100 µM,> 100 µM,> 100 µM,> 100 µM,> 100 µM,> 100 µM,> 100 µM,–,–,–,–,–,–,–
O=C(/C=C/c1cccc(Oc2ccccc2)c1)NCc1ccc(C(=O)NCCc2ccccc2)cc1,> 100 µM,> 100 µM,> 100 µM,> 100 µM,> 100 µM,> 100 µM,> 100 µM,> 100 µM,–,> 100 µM,–,–,–,–,–,–,–
Cc1ccc(-c2nc(N/N=C/c3ccc(O)cc3)c3ccccc3n2)cc1,31.7 µM,16.2 µM,36.2 µM,–,> 100 µM,35.7 µM,37.6 µM,61.9 µM,> 100 µM,75.2 µM,–,–,–,–,–,–,–
